Experimental data from paper PMC11684895 (Briefings in Bioinformatics, 2024).

How the values were obtained:
DNA gyrase subunit GyrA = DNA gyrase subunit GyrA (Mycobacterium tuberculosis, UniProt P9WG47); test: SPR; type: binding
DNA gyrase subunit GyrB = DNA gyrase subunit GyrB (Mycobacterium tuberculosis, UniProt P9WG45); test: SPR; type: binding
Sequence of DNA gyrase subunit GyrB (P9WG45 whole entry): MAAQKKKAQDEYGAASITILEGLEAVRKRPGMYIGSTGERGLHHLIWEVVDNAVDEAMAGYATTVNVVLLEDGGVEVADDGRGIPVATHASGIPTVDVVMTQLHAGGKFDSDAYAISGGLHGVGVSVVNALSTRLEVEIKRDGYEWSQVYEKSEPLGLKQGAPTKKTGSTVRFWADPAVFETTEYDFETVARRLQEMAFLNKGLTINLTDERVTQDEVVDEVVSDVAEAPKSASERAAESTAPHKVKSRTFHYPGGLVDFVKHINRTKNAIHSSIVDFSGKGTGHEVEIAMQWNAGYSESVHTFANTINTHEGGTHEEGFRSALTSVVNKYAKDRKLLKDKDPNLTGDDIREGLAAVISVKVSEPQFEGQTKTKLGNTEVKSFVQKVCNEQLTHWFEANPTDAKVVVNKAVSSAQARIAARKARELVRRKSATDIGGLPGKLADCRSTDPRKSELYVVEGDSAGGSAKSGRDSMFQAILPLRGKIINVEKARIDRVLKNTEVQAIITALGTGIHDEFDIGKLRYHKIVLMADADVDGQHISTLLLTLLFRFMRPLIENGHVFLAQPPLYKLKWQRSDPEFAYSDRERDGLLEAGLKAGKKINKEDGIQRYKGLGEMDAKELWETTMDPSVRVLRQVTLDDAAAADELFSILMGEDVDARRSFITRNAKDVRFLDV

Sequence of DNA gyrase subunit GyrA (P9WG47 2-838): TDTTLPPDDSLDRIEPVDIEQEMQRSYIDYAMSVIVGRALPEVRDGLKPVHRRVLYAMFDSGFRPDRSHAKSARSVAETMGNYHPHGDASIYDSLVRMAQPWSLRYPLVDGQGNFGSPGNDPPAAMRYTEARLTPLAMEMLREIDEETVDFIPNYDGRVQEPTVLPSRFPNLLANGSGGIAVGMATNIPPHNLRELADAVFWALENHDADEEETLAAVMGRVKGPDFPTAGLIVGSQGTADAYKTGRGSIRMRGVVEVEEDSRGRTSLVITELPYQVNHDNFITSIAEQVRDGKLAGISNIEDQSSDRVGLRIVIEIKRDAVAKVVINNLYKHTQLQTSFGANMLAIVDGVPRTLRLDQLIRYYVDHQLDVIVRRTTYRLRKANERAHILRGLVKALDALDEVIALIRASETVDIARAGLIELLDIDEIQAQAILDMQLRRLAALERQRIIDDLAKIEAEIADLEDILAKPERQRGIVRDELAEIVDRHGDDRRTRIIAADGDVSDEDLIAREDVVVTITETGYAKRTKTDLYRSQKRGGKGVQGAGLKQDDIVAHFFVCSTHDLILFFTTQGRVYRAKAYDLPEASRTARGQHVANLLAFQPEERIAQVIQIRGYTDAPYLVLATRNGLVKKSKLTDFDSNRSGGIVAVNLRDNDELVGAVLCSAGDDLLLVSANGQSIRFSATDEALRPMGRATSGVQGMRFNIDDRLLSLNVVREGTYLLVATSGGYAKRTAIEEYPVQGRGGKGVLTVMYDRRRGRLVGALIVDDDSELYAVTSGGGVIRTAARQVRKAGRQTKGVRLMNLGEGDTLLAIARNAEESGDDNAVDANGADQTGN

Row | Structure (SMILES) | Kd (DNA gyrase subunit GyrA) | Kd (DNA gyrase subunit GyrB)
1 | COc1cccc2c1C(=O)c1c(O)c3c(c(O)c1C2=O)C[C@@](O)(/C(CO)=N/NC(=O)CCCCCN1C(=O)C=CC1=O)C[C@@H]3O[C@H]1C[C@H](N)[C@H](O)[C@H](C)O1 [aldoxorubicin] | 400 nM | 324 nM
2 | CN1CCC[C@H]1CCNC(=O)c1cn2c3c(c(N4CCC(c5cnccn5)C4)c(F)cc3c1=O)Oc1cc3ccccc3cc1-2 (stereo partly shown) [quarfloxin] | 2890 nM | 30100 nM
